Data reported in patent US12083304B2, “Kits for topical, isotonic compositions” (GLYCIOME, LLC, priority 2019, dated 2024).

Test system: Arion lusitanicus
Assay: Slug Mucosal Irritation (SMI) assay
Type: in vivo
Protocol: The SMI assay uses slugs (Arion lusitanicus) as the test organism. The body wall of slugs consists of a mucosal surface comprising mucus secreting cells covering a sub epithelial connective tissue. Slugs that are placed on an irritant substance will actively produce mucus as a protective mechanism from noxious agents. Additionally, tissue damage of the slug's surface results in the release of proteins and enzymes. The protein concentration in the collected samples is determined with a protein quantitation kit.
The Slug Mucosal Irritation (SMI) assay was developed to predict the mucosal irritation potency of pharmaceutical formulations and ingredients. Briefly, the assay utilized the terrestrial slug Arion lusitanicus, whose body wall is a mucosal surface composed of different layers. The outer single-layered columnar epithelium contains cells with cilia, cells with microvilli, and mucus-secreting cells that cover the subepithelial connective tissue. […]
The method for testing the irritation potency of the formulations was evaluated by placing the slugs on 100 mg of the sample for 30 minutes daily for 3 successive days, and the amount of mucus produced was measured. […] The total mucus production (MP) percentage was calculated as a percent of the slug's body weight.

**Q.** Nonoxynol-9 was tested. Which “Total MP (%)” value (100 mg, 30 minutes daily, 3 successive days, percent of slug body weight) did it give?
**A.** The value was 8.2 ± 1.2%.

**Q.** And the MIP (mucosal irritation potency class)?
**A.** Its MIP is “high”.
